Source: patent publication US20250313553A1, “ANNULATED 2-AMINO-3-CYANO THIOPHENES AND DERIVATIVES FOR THE TREATMENT OF CANCER” (Boehringer Ingelheim Int'l GmbH Corp., priority 2021, published 2025)
pIC50: −log10 of the molar value. Converted amounts (≈) assume the structure as drawn. Read-outs that look alike come from different tables or passages of the source.

Assays:
[1] = Solubility measurement (DMSO solution precipitation method); assay type: physicochemical; conditions: aqueous buffer, kinetic from dmso stock
Procedure: The DMSO solution is diluted with an aqueous medium (McIlvaine buffer with pH=4.5 or 6.8) to a final concentration of 250 μM. After 24 h of shaking at ambient temperature a potentially formed precipitate is removed by filtration. The concentration of the test compound in the filtrate is determined by LC-UV methods by calibrating the signal to the signal of a reference solution with complete dissolution of the test compound in acetonitrile/water (1:1) with known concentration.

KRAS (G12D) and SOS1 = molecular target: T1, KRAS (G12D) and SOS1 (Homo sapiens, UniProt P01116, G12D); experiment: KRAS::SOS1 AlphaScreen binding assay, KRAS G12D
T1 construct: KRAS (G12D) 1-169, N-terminal 6His-tag; 6His (N); purchased Xtal BioStructures, Inc. (KRAS G12D); Viva Biotech Ltd (SOS1)
Procedure: (§1) Low IC50 values in this assay setting are indicative of strong inhibition of protein-protein interaction between SOS1 and KRAS:
(§2) These assays measure the inhibitory effect of compounds on KRAS mutant protein-protein interactions using the Alpha Screen technology by Perkin Elmer.
(§3) For the chosen highest assay concentration of 100 μM, 150 nL of compound solution are transferred from a 10 mM DMSO compound stock solution. A series of eleven fivefold dilutions per compound are transferred to the assay plate, compound dilutions are tested in duplicates. DMSO are added as backfill to a total volume of 150 nL.
(§4) The assays run on a fully automated robotic system in a darkened room below 100 Lux. To 150 nl of compound dilution 10 μl of a mix including KRAS mutant protein, SOS1 (final assay concentrations see above) and GDP nucleotide (Sigma G7127; final assay concentration 10 μM) in assay buffer (1×PBS, 0.1% BSA, 0.05% Tween 20) are added into columns 1-24. After 30 minutes incubation time 5 μl of Alpha Screen bead mix in assay buffer are added into columns 1-23.
(§5) Plates are kept at room temperature in a darkened incubator. After an additional 60 minutes incubation time the signal is measured in a PerkinElmer Envision HTS Multilabel Reader using the AlphaScreen specs from PerkinElmer.
(§6) IC50 values are calculated and analyzed with Boehringer Ingelheim's MEGALAB IC50 application using a 4 parametric logistic model.

[2] = Metabolic (microsomal) stability assay, HLM; assay type: in vitro ADME; conditions: human liver microsomes, 1 μM, predicted clearance as percent of liver blood flow
Procedure: The metabolic degradation of the test compound is assayed at 37° C. with pooled liver microsomes (mouse (MLM), rat (RLM) or human (HLM)). The final incubation volume of 48 μL per time point contains TRIS buffer (pH 7.5; 0.1 M), magnesium chloride (6.5 mM), microsomal protein (0.5 mg/mL for mouse/rat, 1 mg/mL for human specimens) and the test compound at a final concentration of 1 μM. Following a short preincubation period at 37° C., the reactions are initiated by addition of 12 μL beta-nicotinamide adenine dinucleotide phosphate, reduced form (NADPH, 10 mM) and terminated by transferring an aliquot into solvent after different time points (0, 5, 15, 30, 60 min). Additionally, the NADPH-independent degradation is monitored in incubations without NADPH, terminated at the last time point by addition of acetonitrile. The quenched incubations are pelleted by centrifugation (4,000 rpm, 15 min). An aliquot of the supernatant is assayed by LC-MS/MS to quantify the concentration of parent compound in the individual samples.
In vitro intrinsic clearance (CLint, in vitro) is calculated from the time course of the disappearance of the test drug during the microsomal incubation. Each plot is fitted to the first-order elimination rate constant as C(t)=C0*exp(−ke*t), where C(t) and C0 are the concentration of unchanged test drug at incubation time t and that at preincubation and ke is the disappearance rate constant of the unchanged drug. Subsequently, CLint, in vitro (μL min^−1·amount protein) values are converted to predicted CLint, in vivo (mL min^−1·kg^−1) from incubation parameters according to the equation CLint, in vivo=CLint, in vitro×(incubation volume (ml)/amount protein (mg))×(amount protein (mg)/g liver tissue)×(liver weight/body wt.). For better across species comparison the predicted clearance is expressed as percent of the liver blood flow [% QH](mL min^−1·kg^−1) in the individual species. In general, high stability (corresponding to low % QH) of the compounds across species is desired.

KRAS (G12C) and SOS1 = molecular target: T2, KRAS (G12C) and SOS1 (Homo sapiens, UniProt P01116, C118S/C51S/C80L/G12C); experiment: KRAS::SOS1 AlphaScreen binding assay, KRAS G12C
T2 construct: KRAS (G12C) 1-169, N-terminal 6His-tag for purification; 6His (N, cleaved yes)
Procedure: as §1, §2, §3, §4, §5, §6

CYP3A4 = molecular target: T3, CYP3A4 (Homo sapiens, UniProt P08684); experiment: Mechanism based inhibition of CYP3A4 assay (MBI 3A4); assay type: in vitro ADME; conditions: 25 uM, hydroxy-midazolam formation after 30 min preincubation relative to 0 min
T3 construct: assayed in human liver microsomes (0.02 mg/mL) with midazolam (15 μM) as a substrate; from tissue; host or cells: human liver microsomes
Procedure: The time dependent inhibition towards CYP3A4 is assayed in human liver microsomes (0.02 mg/mL) with midazolam (15 μM) as a substrate. The test compounds and water control (wells w/o test compound) are preincubated in presence of NADPH (1 mM) with human liver microsomes (0.2 mg/mL) at a concentration of 25 uM for 0 min and 30 min. After preincubation, the incubate is diluted 1:10 and the substrate midazolam is added for the main incubation (15 min). The main incubation is quenched with acetonitrile and the formation of hydroxy-midazolam is quantified via LC/MS-MS. The formation of hydroxy-midazolam from the 30 min preincubation relative to the formation from the 0 min preincubation is used as a readout. Values of less than 100% mean that the substrate midazolam is metabolized to a lower extent upon 30 min preincubation compared to 0 min preincubation. In general low effects upon 30 min preincubation are desired (corresponding to values close to 100%/not different to the values determined with water control).

[3] = McIlvaine buffer pH 4.5, 24 h, read-out: solubility pH 4.5
[4] = McIlvaine buffer pH 6.8, 24 h, read-out: solubility pH 6.8

T2 sequence (P01116 1-169 isoform P01116-2 G12C/C51S/C80L/C118S): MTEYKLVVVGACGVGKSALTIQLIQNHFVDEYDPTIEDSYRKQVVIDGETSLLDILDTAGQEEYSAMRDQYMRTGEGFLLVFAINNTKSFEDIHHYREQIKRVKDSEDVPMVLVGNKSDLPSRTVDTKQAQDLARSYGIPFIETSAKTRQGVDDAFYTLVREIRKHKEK
T3 sequence (P08684 whole entry): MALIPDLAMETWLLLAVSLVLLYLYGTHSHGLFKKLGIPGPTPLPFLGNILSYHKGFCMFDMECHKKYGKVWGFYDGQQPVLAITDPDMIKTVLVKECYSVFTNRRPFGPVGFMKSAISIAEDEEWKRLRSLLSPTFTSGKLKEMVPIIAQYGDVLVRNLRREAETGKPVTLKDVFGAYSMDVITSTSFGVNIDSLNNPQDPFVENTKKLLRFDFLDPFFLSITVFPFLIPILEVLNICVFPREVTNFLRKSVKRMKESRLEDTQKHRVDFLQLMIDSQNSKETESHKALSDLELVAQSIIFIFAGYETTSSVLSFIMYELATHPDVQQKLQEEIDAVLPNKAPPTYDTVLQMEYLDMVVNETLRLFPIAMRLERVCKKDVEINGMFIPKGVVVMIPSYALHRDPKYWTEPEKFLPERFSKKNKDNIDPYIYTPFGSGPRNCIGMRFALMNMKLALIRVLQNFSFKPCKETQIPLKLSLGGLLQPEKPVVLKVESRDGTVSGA
T1 sequence (P01116 1-169 isoform P01116-2 G12D): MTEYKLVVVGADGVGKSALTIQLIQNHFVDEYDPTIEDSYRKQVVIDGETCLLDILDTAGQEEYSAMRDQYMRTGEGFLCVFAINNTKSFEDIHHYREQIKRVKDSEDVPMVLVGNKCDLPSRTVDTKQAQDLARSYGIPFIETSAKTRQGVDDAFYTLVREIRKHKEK

SMILES | solubility at 24 h [1, 3] | solubility at 24 h [1, 4] | pIC50 (KRAS (G12D) and SOS1) | HLM QH [2] | pIC50 (KRAS (G12C) and SOS1) | MBI 3A4 (CYP3A4)
C[C@H]1CN(C)CCN1c1cccc(-c2noc([C@@]3(C)CCCc4sc(N)c(C#N)c43)n2)n1 [Example V-1] | > 110 µg/mL | 76 µg/mL (≈ 169 µM) | 7.59 | 93% | 7.51 | 65%
COCCCN1CCCN(c2nccc(-c3noc([C@@]4(C)CCCc5sc(N)c(C#N)c54)n3)n2)[C@@H](C)C1 [Example V-2] | > 130 µg/mL | 100 µg/mL (≈ 191 µM) | 8.52 | >95% | 8.22 | –
C[C@H]1CNCCN1c1nccc(-c2noc([C@@]3(C)CCCc4sc(N)c(C#N)c43)n2)n1 [Example V-4] | > 97 µg/mL | > 91 µg/mL | 7.82 | 83% | 7.64 | 75%
C[C@H]1CN(C)CCCN1c1nccc(-c2noc([C@@]3(C)CCCc4sc(N)c(C#N)c43)n2)n1 [Example V-5] | > 100 µg/mL | 92 µg/mL (≈ 198 µM) | 8.15 | 94% | 8.10 | 55%
C[C@H]1CNCCCN1c1nccc(-c2noc([C@@]3(C)CCCc4sc(N)c(C#N)c43)n2)n1 [Example V-6] | 88 µg/mL (≈ 195 µM) | 85 µg/mL (≈ 189 µM) | 7.92 | 77% | 7.82 | –
C[C@H]1CN(C)CCN1c1nccc(-c2noc([C@@]3(C)CCCc4sc(N)c(C#N)c43)n2)n1 [Example V-7] | – | – | 7.80 | 95% | 7.66 | 57%
C[C@H](Oc1cccc(-c2noc([C@@]3(C)CCCc4sc(N)c(C#N)c43)n2)n1)[C@@H]1CCCN1C [Example V-8] | > 96 µg/mL | > 95 µg/mL | 8.15 | >88% | 8.05 | –
CC(C)N1CCCN(c2nccc(-c3noc([C@@]4(C)CCCc5sc(N)c(C#N)c54)n3)n2)[C@@H](C)C1 [Example V-9] | > 110 µg/mL | > 110 µg/mL | 8.30 | >88% | 8.30 | 49%
C[C@H](Oc1nccc(-c2noc([C@@]3(C)CCCc4sc(N)c(C#N)c43)n2)n1)[C@@H]1CCCN1C [Example V-10] | > 110 µg/mL | > 110 µg/mL | 8.30 | 87% | 8.15 | 65%
C[C@H](Oc1ccnc(-c2noc([C@@]3(C)CCCc4sc(N)c(C#N)c43)n2)n1)[C@@H]1CCCN1C [Example V-11] | > 116 µg/mL | > 116 µg/mL | – | 81% | – | –
C[C@H]1CN(C)CCN1c1nccc(-c2cc([C@@]3(C)CCCc4sc(N)c(C#N)c43)on2)n1 [Example V-27] | > 93 µg/mL | 18 µg/mL (≈ 40 µM) | 8.10 | >88% | 7.62 | 71%
